Read-outs that look alike come from different tables or passages of the source.
Key:
[1] = target: mTOR enzyme (Homo sapiens, UniProt P42345); test: mTOR Kinase Assay; format: biochemical
Protocol: The mTOR assay buffer contains 10 mM hepes (pH 7.4), 50 mM NaCl, 100 μg/ml BSA, 50 mM B-glycerophosphate, 10 mM MnCl2 and 0.5 mM DTT. 20 ng of mTOR enzyme is preincubated with the compound for 10 minutes. 5 μM ATP and 0.1 μM GSTS6K is added. The reaction is incubated for one hour at 30° C. Anti phospho p70S6K (about 1.7 ng/well) and anti GSTXL665 (1:1 Ratio with the substrate GSTS6K) are added after incubating. The plates are read at least 2 hours after adding the anti phospho p70S6K and the anti GSTXL665.

[2] = target: T1, Cyclin E/CDK2 (Homo sapiens, UniProt P24941); test: In Vitro Cyclin E/CDK2 Kinase Assay; format: biochemical
T1 construct: made in house; host or cells: SF9 cells, baculovirus co-infection
Source text: Cyclin E was cloned into pVL1393 (Pharmingen, La Jolla, Calif.) by PCR, with the addition of 5 histidine residues at the amino-terminal end to allow purification on nickel resin. The expressed protein was approximately 45 kDa. CDK2 was cloned into pVL1393 by PCR, with the addition of a haemaglutinin epitope tag at the carboxy-terminal end (YDVPDYAS). The expressed protein was approximately 34 kDa in size.
Recombinant baculoviruses expressing cyclin E and CDK2 were co-infected into SF9 cells at an equal multiplicity of infection (MOI=5), for 48 hrs. Cells were harvested by centrifugation at 1000 RPM for 10 minutes, then pellets lysed on ice for 30 minutes in five times the pellet volume of lysis buffer containing 50 mM Tris pH 8.0, 150 mM NaCl, 1% NP40, 1 mM DTT and protease inhibitors (Roche Diagnostics GmbH, Mannheim, Germany). Lysates were spun down at 15000 RPM for 10 minutes and the supernatant retained. 5 mL of nickel beads (for one liter of SF9 cells) were washed three times in lysis buffer (Qiagen GmbH, Germany). Imidazole was added to the baculovirus supernatant to a final concentration of 20 mM, then incubated with the nickel beads for 45 minutes at 4° C. Proteins were eluted with lysis buffer containing 250 mM imidazole. Eluate was dialyzed about 15 hours in 2 liters of kinase buffer containing 50 mM Tris pH 8.0, 1 mM DTT, 10 mM MgCl2, 100 μM sodium orthovanadate and 20% glycerol. Enzyme was stored in aliquots at −70° C.
Cyclin E/CDK2 kinase assays can be performed as described below in low protein binding 96-well plates (Corning Inc, Corning, N.Y.).
The substrate used in these reactions is a biotinylated peptide derived from Histone H1 (from Amersham, UK). The substrate is thawed on ice and diluted to 2 μM in kinase buffer. Test compounds are diluted in 10% DMSO to desirable concentrations. For each kinase reaction, 20 μL of the 50 μg/mL enzyme solution (1 μg of enzyme) and 20 μl of the 2 μM substrate solution are mixed, then combined with 10 μL of diluted compound in each well for testing. The kinase reaction is initiated by addition of 50 μL of 2 μM ATP and 0.1 μCi of ^33P-ATP (from Amersham, UK). The reaction is allowed to run for 1 hour at room temperature, then is stopped by adding 200 μL of stop buffer containing 0.1% Triton X-100, 1 mM ATP, 5 mM EDTA, and 5 mg/mL streptavidine coated SPA beads (from Amersham, UK) for 15 minutes. The SPA beads are then captured onto a 96-well GFIB filter plate (Packard/Perkin Elmer Life Sciences) using a Filtermate universal harvester (Packard/Perkin Elmer Life Sciences.). Non-specific signals are eliminated by washing the beads twice with 2M NaCl then twice with 2 M NaCl with 1% phosphoric acid. The radioactive signal can then be measured using, for example, a TopCount 96 well liquid scintillation counter (from Packard/Perkin Elmer Life Sciences).

[3] = target: T2, recombinant His-CHK1 (Homo sapiens, UniProt O14757); test: CHK1 In Vitro Kinase Assay
T2 sequence (O14757 1-265 limits assumed): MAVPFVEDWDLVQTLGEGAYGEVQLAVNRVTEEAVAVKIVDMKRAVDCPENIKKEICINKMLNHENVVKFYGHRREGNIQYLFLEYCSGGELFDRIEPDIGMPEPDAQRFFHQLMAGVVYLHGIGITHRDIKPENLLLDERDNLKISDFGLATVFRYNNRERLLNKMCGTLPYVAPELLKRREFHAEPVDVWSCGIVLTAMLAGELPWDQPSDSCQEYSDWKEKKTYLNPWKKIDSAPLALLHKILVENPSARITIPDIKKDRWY

SMILES | IC50 ([1]; rated A-F) | IC50 ([2]; rated A-F) | IC50 [3] | IC50 [1] | IC50 [2]
Nc1c(Br)c(C2CCC(CC(=O)O)CC2)nc2c(-c3cnc4ccccc4c3)cnn12 (single isomer, unassigned) [Compound 5.4, 2-(4-(7-amino-6-bromo-3-(quinolin-3-yl)pyrazolo[1,5-a]pyrimidin-5-yl)cyclohexyl)acetic acid] | < 100 nM | > 5 µM | > 5 µM |  | 
COC(=O)[C@@H]1CC[C@H](c2cc(N)n3ncc(-c4cnn(C)c4)c3n2)CN1 (stereo in doubt) [Compound 2.5] | 101 to 200 nM | > 5 µM | 0.501 to 1 µM |  | 
COC(=O)[C@@H]1CC[C@H](c2nc3c(-c4cnc5ccccc5c4)cnn3c(N)c2Br)CN1 (stereo in doubt) [Compound 2.6] | < 100 nM | > 5 µM | 1 to 5 µM |  | 
COC(=O)[C@H]1CC[C@@H](c2nc3c(-c4cnc5ccccc5c4)cnn3c(N)c2Br)CN1 (stereo in doubt) [Compound 2.7] | 101 to 200 nM | > 5 µM | > 5 µM |  | 
Nc1cc(C2CCC(C(=O)O)NC2)nc2c(-c3cnc4ccccc4c3)cnn12 (stereo not shown) [Compound 1.1, 5-(7-amino-3-(quinolin-3-yl)pyrazolo[1,5-a]pyrimidin-5-yl)piperidine-2-carboxylic acid] |  |  |  | 12.4 nM | 
Cn1cc(-c2cnn3c(N)cc(C4CCC(C(=O)O)NC4)nc23)cn1 (stereo not shown) [Compound 1.2] |  |  |  | 146 nM | 
Nc1cc(C2CCC(C(=O)O)NC2)nc2c(-c3cn[nH]c3)cnn12 (stereo not shown) [Compound 1.5] | < 100 nM | > 5 µM | > 5 µM |  | 
Nc1c(Br)c(C2CCC(C(=O)O)NC2)nc2c(-c3cnc4ccccc4c3)cnn12 (stereo not shown) [Compound 2.2, 5-(7-amino-6-bromo-3-(quinolin-3-yl)pyrazolo[1,5-a]pyrimidin-5-yl)piperidine-2-carboxylic acid] | < 100 nM | > 5 µM | > 5 µM |  | 
COC(=O)C1CCC(c2nc3c(-c4cnc5ccccc5c4)cnn3c(N)c2Br)CN1 (stereo not shown) [Compound 2.3, Methyl 5-(7-amino-6-bromo-3-(quinolin-3-yl)pyrazolo[1,5-a]pyrimidin-5-yl)piperidine-2-carboxylate] | < 100 nM | > 5 µM | 1 to 5 µM |  | 
COC(=O)C1CCC(c2nc3c(-c4cnn(C)c4)cnn3c(N)c2Br)CN1 (stereo not shown) [Compound 2.4] | < 100 nM | > 5 µM | 0.101 to 0.2 µM |  | 
COC(=O)C1CCC(c2cc(N)n3ncc(-c4cnn(C)c4)c3n2)CN1 (stereo not shown) [Compound 2.8] | 501 to 1000 nM | > 5 µM | 1 to 5 µM |  | 
CN(C)C(=O)C1CCC(c2cc(N)n3ncc(-c4cnn(C)c4)c3n2)CN1 (stereo not shown) [Compound 2.9] | 1000 to 5000 nM |  | > 5 µM |  | 
Nc1c(Br)c([C@H]2CC[C@H]3C(=O)NC(=O)N3C2)nc2c(-c3cnc4ccccc4c3)cnn12 [Compound 3.10] | < 100 nM | 0.501 to 1 µM | > 5 µM |  | 
Cn1cc(-c2cnn3c(N)c(Br)c(C4CCC(C(=O)O)C4)nc23)cn1 (stereo not shown) [Compound 4.5] | 101 to 200 nM | > 5 µM | > 5 µM |  | 
Nc1c(Br)c([C@H]2CC[C@H](C(=O)O)CC2)nc2c(-c3ccc(-c4cccnc4)nc3)cnn12 [Compound 4.11] | < 100 nM | > 5 µM | > 5 µM |  | 
Nc1c(Br)c([C@H]2CC[C@H](C(=O)O)CC2)nc2c(-c3ccc(-c4ccncc4)nc3)cnn12 [Compound 4.12] | < 100 nM | > 5 µM | > 5 µM |  | 
N#CCC1CCC(c2nc3c(-c4cnc5ccccc5c4)cnn3c(N)c2Br)CC1 (stereo not shown) [Compound 5.2] | < 100 nM | > 5 µM | > 5 µM |  | 
N#Cc1c(C2CCC(CC(=O)O)CC2)nc2c(-c3cnc4ccccc4c3)cnn2c1N (stereo not shown) [Compound 6.6, [4-(7-Amino-6-cyano-3-quinolin-3-yl-pyrazolo[1,5-a]pyrimidin-5-yl)-cyclohexyl]-acetic acid] |  |  |  | 1.4 nM | 

SMILES | IC50 ([1]; rated A-F) | IC50 ([2]; rated A-F) | IC50 [3] | IC50 [1] | IC50 [2]
Nc1c(Br)c(C2CCC3(CC2)OCCO3)nc2c(-c3cnc4ccccc4c3)cnn12 [Compound 6.7] | < 100 nM |  | > 5 µM |  | 
CS(=O)(=O)NC(=O)C[C@H]1CC[C@@H](c2nc3c(-c4cnc5ccccc5c4)cnn3c(N)c2Br)CC1 [Compound 7.2, 2-(4-(7-amino-6-bromo-3-(quinolin-3-yl)pyrazolo[1,5-a]pyrimidin-5-yl)cyclohexyl)-N-(methylsulfonyl)acetamide] | < 100 nM | > 5 µM | > 5 µM |  | 
CS(=O)(=O)NC(=O)C[C@H]1CC[C@H](c2nc3c(-c4cnc5ccccc5c4)cnn3c(N)c2Br)CC1 [Compound 7.5] | < 100 nM | > 5 µM | > 5 µM |  | 
CS(=O)(=O)N1CCC(c2nc3c(-c4cnc5ccccc5c4)cnn3c(N)c2Br)C1 (stereo not shown) [Compound 8.1] | < 100 nM | > 5 µM | > 5 µM |  | 
CC(=O)N1CCC(c2nc3c(-c4cnc5ccccc5c4)cnn3c(N)c2Br)C1 (stereo not shown) [Compound 8.7] | < 100 nM |  | > 5 µM |  | 
Nc1c(Br)c(C2CCS(=O)(=O)CC2)nc2c(-c3cnc4ccccc4c3)cnn12 [Compound 8.15] | < 100 nM | > 5 µM | > 5 µM |  | 
CS(=O)(=O)N1CCC(c2cc(N)n3ncc(-c4cnc5ccccc5c4)c3n2)C1 (stereo not shown) [Compound 8.17] | < 100 nM | > 5 µM | > 5 µM |  | 
CS(=O)(=O)N1CCC(c2nc3c(-c4cnc5ccccc5c4)cnn3c(N)c2Br)CC1 [Compound 8.18] | < 100 nM | 1 to 5 µM | > 5 µM |  | 
Nc1c(Br)c(N2CCN3C(=O)NC(=O)CC3C2)nc2c(-c3cnc4ccccc4c3)cnn12 (stereo not shown) [Compound 10.5] | < 100 nM | 0.501 to 1 µM | > 5 µM |  | 
Nc1c(Br)c(N2CCc3[nH]cnc3C2)nc2c(-c3cnc4ccccc4c3)cnn12 [Compound 10.19] | < 100 nM | > 5 µM | > 5 µM |  | 
Nc1c(Br)c(N2CCN3C(=O)CCC3C2)nc2c(-c3cnc4ccccc4c3)cnn12 (stereo not shown) [Compound 10.26] | < 100 nM | > 5 µM | > 5 µM |  | 
Nc1c(Br)c(N2CCS(=O)(=O)CC2)nc2c(-c3cnc4ccccc4c3)cnn12 [Compound 10.31] | < 100 nM | > 5 µM | > 5 µM |  | 
Nc1c(Br)c(N2CCC(CC(=O)O)CC2)nc2c(-c3cnc4ccccc4c3)cnn12 [Compound 10.47] |  |  | 22 µM | 11.3 nM | 10 µM
Nc1c(Br)c(N2CCN3C(=O)NC(=O)C3C2)nc2c(-c3cnc4ccccc4c3)cnn12 (stereo not shown) [Compound 10.60] | < 100 nM | > 5 µM | > 5 µM |  | 
Nc1c(Cl)c(N2CCN3C(=O)NC(=O)C3C2)nc2c(-c3cnc4ccccc4c3)cnn12 (stereo not shown) [Compound 10.61] | < 100 nM | > 5 µM | > 5 µM |  | 
CC(=O)c1c(N2CCS(=O)(=O)CC2)nc2c(-c3cnc4ccccc4c3)cnn2c1N [Compound 10.62] | < 100 nM | > 5 µM | > 5 µM |  | 
Nc1c(Br)c(-c2ccc(CC(=O)O)cc2)nc2c(-c3cnc4ccccc4c3)cnn12 [Compound 11.1, [4-(7-Amino-6-bromo-3-quinolin-3-yl-pyrazolo[1,5-a]pyrimidin-5-yl)-phenyl]-acetic acid] |  |  |  | 14.8 nM | 

— US8591943B2, “Pyrazolo[1,5-a]pyrimidine derivatives as mTOR inhibitors” (Merck Sharp & Dohme Corp., priority 2009, dated 2013)
